In patent publication US20140024700A1, “BLOOD-BORNE MIRNAS AS SURROGATE MARKERS OF DRUG EFFICACY FOR CARDIAC CONDITIONS” (miRagen Therapeutics, Inc., priority 2010, published 2014):
“Also recorded” adds a separate entry of the source.

Columns and labels:
[1] = system: Dahl salt-sensitive rats; test: Dahl salt-sensitive rat model, 6% NaCl diet: body weight and survival (Example 3); type: in vivo
[2] = system: miR-208a; test: Real-time PCR of miR-208a in cardiac tissue, 4% NaCl diet (Example 1); type: in vivo, rat; settings: 4% NaCl HS diet, 2 weeks after last injection, 5 or 25 mg/kg antimiR, control 25 mg/kg
Method: This regulation of miR-499 and miR-208b was confirmed by Northern blot analysis (FIG. 2B).
For in vivo real-time PCR analysis, RNA was extracted from cardiac tissue using Trizol (Invitrogen) after which two μg RNA from each tissue sample was used to generate cDNA using Super Script II reverse transcriptase per manufacturer's specifications (Invitrogen). To detect the level of miR-208 RT-PCR was performed using the Taqman MicroRNA assay (Applied Biosystems, ABI) according the manufacturer's recommendations, using 10-100 ng of total RNA. The expression of a subset of genes was analyzed by quantitative real time PCR using Taqman probes purchased from ABI.

[3] = system: plasma miRNAs; test: Real-time PCR of plasma miRNAs, 6% NaCl diet (Example 3); type: in vivo, rat
Method: One week following the initiation of the 6.0% NaCl diet, rats were dosed subcutaneously (sc) with saline or oligonucleotides (M−10101, 5′-CTTTTTGCTCGTCTTA-3′ (SEQ ID NO: 12) or M-10591, 5′-TCCTAGAAAGAGTAGA-3′ (SEQ ID NO:13)) at 25 mg/kg every 2 weeks. Captopril or water were dosed daily by oral gavage. Echocardiography was performed every 2 weeks starting one week post […] dosing. The Captopril dose for rat was selected to match the standard human dose in man.
Quantitative real-time PCR analysis from plasma. RNA from plasma samples was isolated using Trizol LS Reagent (Invitrogen), using the manufacturer's protocol. Prior to RNA isolation, […] of two different synthetic C. elegans miRNA sequences were added to serve as internal controls for normalization of target miRNAs. The C. elegans sequences used were cel-miR-2 ([…], SEQ ID NO:5), and cel-lin-4 ([…]; SEQ ID NO:6) (Dharmacon). The final RNA pellet was re-suspended in a final volume equal to the initial plasma volume and 5 μl was used for subsequent RT-PCR reactions, as described above.

“M-10101: antimiR targeting bases 2 to 17 of mature miR-208a, LNA and DNA linked by phosphorothioate bonds; 5′-CTTTTTGCTCGTCTTA-3′ (SEQ ID NO: 12) (all phosphorothioate, sugars by position and methylation of C not given here; LNA/DNA mixmer; listed as Homo sapiens)” was tested, and the “Survival (Kaplan-Meier)” value ([1]; M-10101 25 mg/kg sc every 2 weeks, water po, 25 mg/kg) was “significantly improved survival; also recorded: No mortality was observed”, the Body weight ([1]; oligonucleotide 25 mg/kg sc every 2 weeks) was “partially prevented the body weight loss” and the “miR-208a level in left and right ventricle” value ([2]; listed as Anti-miR-208a) was “dose-dependent inhibition”. For the same substance, the “miR-208a level in left and right ventricle” value ([2]; listed as anti-miR-208a) was “dose-dependent reduction of miR-208a”, the “Plasma miR-19b” value [3] was “significantly increased” and the “Plasma miR-223” value [3] was “more significant decrease”. For the same substance, the “Plasma miR-423-5p, miR-106b, miR-16, miR-92a, miR-378, miR-210, miR-378*, miR-20b and miR-93” value [3] was “decreased”.
